These results are taken from the supplement of paper PMC8837787.

This assay has as its system Saccharomyces cerevisiae ABC16-Green Monster. The experiment in a line: growth inhibition at single dose (up to 150 µM), below the 70% cut-off for dose-response; higher = more potent. Conditions: 18 h; 30 °C; YPD. Summed up: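 Data are given as percent growth inhibition. Log-phase drug-sensitive S. cerevisiae ABC16-Green Monster cells (OD600 0.1–0.2, 200 µl per well in 96-well plates) were treated in biological duplicates with each library compound at a single 150 µM dose, with untreated cultures alongside, and OD600 was measured at 0 h and after 18 h at 30 °C. Compounds falling below 70% in both replicates were not taken to dose-response.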

`COc1ccc(-c2csc(NC(=O)CN3CCN(c4ncnc5c4cnn5C)CC3)n2)cc1`: the “growth inhibition at single dose” value is less than 70%.

In the case of `Cc1cc(Nc2ccncc2)n2nc(C)c(-c3ccccc3Cl)c2n1`, the “growth inhibition at single dose” value is less than 70%.

As for `COCCNC(=O)c1ccc(OC2CCN(Cc3ccc(F)c(F)c3)CC2)c(Cl)c1`, the “growth inhibition at single dose” value was less than 70%.

Regarding `CC(NCC(=O)N1c2ccc(S(N)(=O)=O)cc2CC1C)C1CC2CCC1C2` (stereo not drawn), the “growth inhibition at single dose” value is less than 70%.

Regarding `Cc1cnc(NC(=O)c2ccc(N(C)C3CCCCC3)cc2)s1`, the “growth inhibition at single dose” value was less than 70%.

On to `COc1ccc(OC)c(C(C)Nc2ncnc3sccc23)c1` (stereo not drawn), for which the “growth inhibition at single dose” value is less than 70%.

`Cc1cc(C(=O)CSc2nc3ccccc3[nH]2)c(C)n1CC1CCCO1` (stereo not drawn): the “growth inhibition at single dose” value was less than 70%.

Take `CCOC(=O)c1cnc2c(C)cccc2c1Nc1ccc(C(C)=O)cc1`: the “growth inhibition at single dose” value is less than 70%.

Take `CCc1nn(C)c(C(=O)NCc2ccc(Oc3ccc(C)cc3)cc2)c1Cl`: the “growth inhibition at single dose” value was less than 70%.

Turning to `FC(F)(F)c1cccc(CNC2CCN(CCc3ccccc3)CC2)c1`, the “growth inhibition at single dose” value was less than 70%.

Regarding `CCCCS(=O)(=O)Nc1ccc2cnn(C)c2c1`, the “growth inhibition at single dose” value is less than 70%.

Turning to `CC1Cc2cc(C3=NNC(=NC4CC4)SC3)ccc2N1S(C)(=O)=O` (stereo not drawn), the “growth inhibition at single dose” value is less than 70%.

With `COc1ccc(-c2cc3c(nn2)-c2ccccc2C3=O)cc1`, the “growth inhibition at single dose” value was less than 70%.

As for `Cc1[nH]c2ccccc2c1/C=N/n1c(-c2ccc(Cl)cc2Cl)cs/c1=N\CC1CCCO1` (stereo not drawn), the “growth inhibition at single dose” value was less than 70%.

On to `CCOC(=O)C1=C(c2ccccc2)N=c2sc(=Cc3cc(C)n(-c4ccc(F)cc4)c3C)c(=O)n2C1c1cccc(OC)c1OC` (stereo not drawn), for which the “growth inhibition at single dose” value is less than 70%.

Regarding `O=C(Cn1ncc(Cl)c(Cl)c1=O)Nc1cc(S(=O)(=O)N2CCOCC2)ccc1Cl`, the “growth inhibition at single dose” value was less than 70%.

`Cc1ccc(NC(=O)c2cc3c(s2)CCCCCC3)nc1`: the “growth inhibition at single dose” value is less than 70%.

Take `CC(C)NC(=O)N1CCCC(C(=O)Nc2nc3ccccc3[nH]2)C1` (stereo not drawn): the “growth inhibition at single dose” value is less than 70%.

For `O=c1cc(CN2CCCCCC2)nc2sccn12`, the “growth inhibition at single dose” value was less than 70%.

With `COc1ccc(C)cc1N1CC(C(=O)Nc2nc3ccccc3[nH]2)CC1=O` (stereo not drawn), the “growth inhibition at single dose” value was less than 70%.

`CC(=O)NC(C)CCc1ccc(C(=O)Cn2ncc(Cl)c(Cl)c2=O)cc1` (stereo not drawn): the “growth inhibition at single dose” value was less than 70%.

As for `Cc1ccc(NC(=O)Nc2cccc(Cl)c2)cc1F`, the “growth inhibition at single dose” value is less than 70%.

`Cc1nc(-c2cccc(NCc3ccccc3)c2)[nH]c1C`: the “growth inhibition at single dose” value was less than 70%.

Take `NCCC(O)C(=O)N[C@@H]1C[C@H](N)[C@@H](OC2O[C@H](CN)[C@@H](O)[C@H](O)[C@H]2O)[C@H](O)C1OC1O[C@H](CO)[C@@H](O)[C@H](N)[C@H]1O` (stereo partly drawn): the “growth inhibition at single dose” value is less than 70%.

As to `CN(C)Cc1ccc(CNc2ncnc3scc(-c4ccccc4)c23)cc1`, the “growth inhibition at single dose” value is less than 70%.

Turning to `O=C(NCCc1ccn(-c2ccccc2)n1)C1CCCCC1`, the “growth inhibition at single dose” value is less than 70%.

`COc1cccc(-c2csc(-c3nnc4n3-c3ccccc3SC4)n2)c1`: the “growth inhibition at single dose” value was less than 70%.

As to `Cc1ccc(Cn2ccs/c2=N/C(=O)c2cc3c(s2)CCCCC3)cc1`, the “growth inhibition at single dose” value was less than 70%.

Turning to `Cc1[nH]c(-c2ccccn2)nc(=O)c1CC(=O)NC1CCCCCCC1`, the “growth inhibition at single dose” value is less than 70%.

For the compound `CCCN(CCC)CCCNC(=O)c1cc2c(-c3ccc(OC)c(OC)c3)nn(C)c2s1`, the “growth inhibition at single dose” value was less than 70%.

Take `COc1cc(C(=O)ON=C(N)Cc2cccc3ccccc23)cc(OC)c1OC`: the “growth inhibition at single dose” value is less than 70%.

As to `COc1ccnc(Nc2ccc3c(c2)nc2n3CCCCC2)n1`, the “growth inhibition at single dose” value is less than 70%.

On to `CCOC(=O)C1(Cc2ccccc2)CCN(Cc2cccc(OC)c2O)CC1`, for which the “growth inhibition at single dose” value is less than 70%.

For the compound `COc1ccc(C(=O)NC(c2ccccc2Cl)c2cc(Cl)c3cccnc3c2O)cc1` (stereo not drawn), the “growth inhibition at single dose” value is less than 70%.

Consider `CCOC(=O)c1ccc(Oc2nc3ccccc3nc2C(C#N)C(=O)OC)cc1` (stereo not drawn), for which the “growth inhibition at single dose” value is less than 70%.

Take `COCc1[nH]n2c3cccc(=O)c-3nnc2c1-c1ccccc1`: the “growth inhibition at single dose” value was less than 70%.

For the compound `C=CCc1c(C)nc2ccccc2c1O`, the “growth inhibition at single dose” value is less than 70%.

Take `CCCC(c1nnnn1C1CCCCC1)N1CCN(C(=O)c2ccco2)CC1` (stereo not drawn): the “growth inhibition at single dose” value was less than 70%.

With `CNCCCNc1ccnc2cc(Cl)ccc12`, the “growth inhibition at single dose” value is less than 70%.

On to `NS(=O)(=O)c1cccc(-c2ccc3ncc(N4CCOCC4)nc3c2)c1`, for which the “growth inhibition at single dose” value was less than 70%.

Take `O=C(CCl)NCCOc1ccc(Cl)cc1Cl`: the “growth inhibition at single dose” value is less than 70%.

Consider `CCCS(=O)(=O)N1CCC(CO)(Cc2ccccc2C(F)(F)F)CC1`, for which the “growth inhibition at single dose” value was less than 70%.

Turning to `COc1ccc(C(=O)NC(c2ccc(Cl)cc2Cl)c2cc(Cl)c3cccnc3c2O)cc1` (stereo not drawn), the “growth inhibition at single dose” value is less than 70%.

With `CCCc1ccc(S(=O)(=O)Nc2ccc(CN3CCN(CC4CC4)CC3)cc2)cc1`, the “growth inhibition at single dose” value is less than 70%.

As to `Cc1ccc2oc(-c3cc(NC(=O)Cc4ccccc4)ccc3Cl)nc2c1`, the “growth inhibition at single dose” value was less than 70%.

For `O=C(C1CCN(c2nnc(-n3cccc3)s2)CC1)N1CCC(Cc2ccccc2)CC1`, the “growth inhibition at single dose” value was less than 70%.

On to `Cc1c(C)n(CCCO)c2ncn3nc(-c4ccc(F)cc4)nc3c12`, for which the “growth inhibition at single dose” value was less than 70%.

With `Cc1cc(C)n(-c2ccc(NC(=O)C3(c4ccccc4)CC3)cn2)n1`, the “growth inhibition at single dose” value was less than 70%.

`CCCc1ccc(-c2nc(-c3cccs3)no2)cc1`: the “growth inhibition at single dose” value was less than 70%.

As to `C[n+]1c2ccccc2nc2ccc(NCCO)cc21`, the “growth inhibition at single dose” value was less than 70%.

Take `CCc1nc(COC(=O)c2c(C)nsc2NC)cs1`: the “growth inhibition at single dose” value is less than 70%.

Take `CCOC(=O)c1ccc(N2CCN(C(C)c3nc(C(C)C)no3)CC2)nc1` (stereo not drawn): the “growth inhibition at single dose” value was less than 70%.

Regarding `FC(F)(F)c1cccc(CNc2ncnc3sccc23)c1`, the “growth inhibition at single dose” value is less than 70%.

With `Cc1ccc(NC(=O)CC2COc3ccccc3O2)cc1Cl` (stereo not drawn), the “growth inhibition at single dose” value was less than 70%.

`CCOC(=O)N1CCC(N/C=C(\C#N)S(=O)(=O)c2ccc(Cl)cc2)CC1`: the “growth inhibition at single dose” value was less than 70%.

Take `CCCn1c(=N)c(C(=O)NC2CCCCC2)cc2c(=O)n3cccc(C)c3nc21`: the “growth inhibition at single dose” value is less than 70%.

`CCOC(=O)Cc1ccc(NC(=O)c2ccc(C(C)(C)C)cc2)cc1`: the “growth inhibition at single dose” value is less than 70%.

For the compound `Oc1c2c(nc3ccccc13)CCCC2`, the “growth inhibition at single dose” value is less than 70%.

Regarding `CC(C)NCC(=O)Nc1cccc(C(=O)Nc2cccc(C(F)(F)F)c2)c1`, the “growth inhibition at single dose” value is less than 70%.

Take `c1cc(C2=NCCN2)cc(-c2cc(-c3ccc(C4=NCCN4)cc3)no2)c1`: the “growth inhibition at single dose” value was less than 70%.

With `Cc1ccc(O)c(C(=O)NCCC(C)C)c1`, the “growth inhibition at single dose” value was less than 70%.

Turning to `CS(=O)(=O)c1ccc(C(=O)N(CC2CCCO2)c2nc3ccccc3s2)cc1[N+](=O)[O-]` (stereo not drawn), the “growth inhibition at single dose” value is less than 70%.

For the compound `C/N=c1\scc(-c2ccc(OC(F)F)cc2)n1/N=C/c1cccs1`, the “growth inhibition at single dose” value was less than 70%.

On to `Cc1cc([N+](=O)[O-])cc(S(=O)(=O)N(Cc2ccc(C(=O)NC3CC3)cc2)C2CC2)c1C`, for which the “growth inhibition at single dose” value was less than 70%.

Consider `COc1ccc(C2=NN(C3CCCCCC3)C(=O)C2(C)C)cc1OCCCCOc1ccc(-c2nn[nH]n2)cc1`, for which the “growth inhibition at single dose” value is less than 70%.

Turning to `CCOc1ccc(-c2nc(NC(=O)c3cccc(S(C)(=O)=O)c3)sc2C)cc1`, the “growth inhibition at single dose” value was less than 70%.

With `CN(C)c1cc(CNC(=O)c2cc3c(F)cccc3s2)ccn1`, the “growth inhibition at single dose” value is less than 70%.

Take `CCOc1ccc2c(c1)CN(Cc1ccc(Cl)cc1)CO2`: the “growth inhibition at single dose” value was less than 70%.

For `Cc1cnc(CCNC(=O)c2cc(-c3ccc(Cl)cc3)cs2)[nH]1`, the “growth inhibition at single dose” value is less than 70%.

For the compound `O=C1c2ccc3c4c(ccc(c24)C(=O)N1CCCCO)C(=O)N(CCCCO)C3=O`, the “growth inhibition at single dose” value was less than 70%.

In the case of `Oc1ccccc1CN1CCC2(CCCN(Cc3ccccc3F)C2)C1` (stereo not drawn), the “growth inhibition at single dose” value is less than 70%.

As to `CCCCOc1ccc(C(=O)Nc2cc(C)on2)cc1`, the “growth inhibition at single dose” value was less than 70%.

With `c1ccc(SCc2ccc(-c3nc4ccccc4s3)cc2)nc1`, the “growth inhibition at single dose” value was less than 70%.

As for `O=C(Nc1nnc(S)s1)c1cc(Br)ccc1Cl`, the “growth inhibition at single dose” value was less than 70%.

In the case of `Cc1cc(Cl)ccc1NC(=O)CCc1ccc(S(=O)(=O)NCC(C)C)cc1`, the “growth inhibition at single dose” value is less than 70%.

In the case of `Cc1ccc(S(=O)(=O)/N=C2\C=C3N(CCO)CCOC3(O)c3ccccc32)c(C)c1` (stereo not drawn), the “growth inhibition at single dose” value is less than 70%.

With `CC1=Nc2ccc(Cl)cc2C(O)(c2ccc(C)cc2)N1CCN1CCCCC1` (stereo not drawn), the “growth inhibition at single dose” value was less than 70%.

For the compound `Cc1cc(C(=O)C(C)Sc2nnnn2C2CC2)c(C)n1-c1ccccc1` (stereo not drawn), the “growth inhibition at single dose” value is less than 70%.

Regarding `Cn1c(N)c(C(=O)COC(=O)C2(c3ccc(Cl)cc3)CCCC2)c(=O)n(C)c1=O`, the “growth inhibition at single dose” value was less than 70%.

Turning to `CNC1C(OC2C(OC3C(O)C(O)C(NC(=N)N)C(O)C3NC(=N)N)OC(C)C2(O)C=O)OC(CO)C(O)C1O` (stereo not drawn), the “growth inhibition at single dose” value was less than 70%.

As to `Oc1c(I)cc(I)c2cccnc12`, the “growth inhibition at single dose” value was less than 70%.

For `CCOc1ccc(S(=O)(=O)CC2=NCCc3cc(OC)c(OC)cc32)cc1`, the “growth inhibition at single dose” value was less than 70%.

As for `Cn1c(Oc2cccc3c2OC(C)(C)C3)c(C#N)c(=O)n(C)c1=O`, the “growth inhibition at single dose” value is less than 70%.
